Results reported in patent US20240174662A1, “SMALL MOLECULE INHIBITORS OF SALT INDUCIBLE KINASES” (Janssen Biotech, Inc., priority 2021, published 2024).

Biological target: SIK2 (Homo sapiens (Human), UniProt Q9H0K1)
Test: SIK2 Enzymatic Assay Version 2 (High ATP)
Type: biochemical
Conditions: 3 mM ATP and 200 μM HDAC5tide final, ADP-Glo Max luminescence
Outline: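 Luminescent ADP-Glo Max read-out: depletion reagent 2 h, then detection reagent 1 h. Before the reaction, compounds were incubated 30 min with enzyme added at 6 nM (twice final concentration), with all steps at room temperature.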

SIK2, sequence (Q9H0K1 whole entry, species assumed): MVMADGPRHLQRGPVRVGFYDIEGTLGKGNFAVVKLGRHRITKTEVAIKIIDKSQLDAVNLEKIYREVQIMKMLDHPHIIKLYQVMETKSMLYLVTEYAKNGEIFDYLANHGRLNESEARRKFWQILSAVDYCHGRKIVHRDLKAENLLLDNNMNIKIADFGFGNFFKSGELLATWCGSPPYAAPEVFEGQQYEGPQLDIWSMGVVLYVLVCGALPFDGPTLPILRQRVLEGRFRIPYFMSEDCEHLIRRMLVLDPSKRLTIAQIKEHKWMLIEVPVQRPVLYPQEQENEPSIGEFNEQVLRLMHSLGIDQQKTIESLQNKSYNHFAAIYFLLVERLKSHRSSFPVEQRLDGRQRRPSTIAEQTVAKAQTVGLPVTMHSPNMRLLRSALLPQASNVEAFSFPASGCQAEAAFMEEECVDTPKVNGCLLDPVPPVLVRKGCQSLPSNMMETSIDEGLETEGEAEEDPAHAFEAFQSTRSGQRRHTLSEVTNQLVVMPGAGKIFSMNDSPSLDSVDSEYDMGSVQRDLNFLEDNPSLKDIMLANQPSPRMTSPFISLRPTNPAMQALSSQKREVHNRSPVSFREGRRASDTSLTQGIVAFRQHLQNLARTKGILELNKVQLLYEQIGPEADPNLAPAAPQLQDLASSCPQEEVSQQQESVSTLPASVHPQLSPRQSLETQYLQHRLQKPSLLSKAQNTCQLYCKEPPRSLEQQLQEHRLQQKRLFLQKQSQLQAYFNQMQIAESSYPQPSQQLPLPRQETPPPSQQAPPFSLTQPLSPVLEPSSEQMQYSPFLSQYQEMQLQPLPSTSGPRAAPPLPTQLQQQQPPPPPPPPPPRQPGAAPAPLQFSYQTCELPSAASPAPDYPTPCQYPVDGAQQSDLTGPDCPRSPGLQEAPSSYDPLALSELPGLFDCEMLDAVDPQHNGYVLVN

IC50	SMILES
26.2 nM	CCN1CC[C@@H]1COc1cnn(C)c1-c1ccn2nc(Nc3ncc(C)c(C)n3)cc2c1 [Example 165, N-(4,5-dimethylpyrimidin-2-yl)-5-[4-[[(2R)-1-ethylazetidin-2-yl]methoxy]-2-methyl-pyrazol-3-yl]pyrazolo[1,5-a]pyridin-2-amine]
1.8 nM	CCN1CC[C@@H]1COc1cnn(C)c1-c1ccn2nc(Nc3ccc(OC)cn3)cc2c1 [Example 166, 5-[4-[[(2R)-1-ethylazetidin-2-yl]methoxy]-2-methyl-pyrazol-3-yl]-N-(5-methoxy-2-pyridyl)pyrazolo[1,5-a]pyridin-2-amine]
2.7 nM	CCN1CC[C@@H]1COc1cnn(C)c1-c1ccn2nc(Nc3cc(OC)ncn3)cc2c1 [Example 167, 5-[4-[[(2R)-1-ethylazetidin-2-yl]methoxy]-2-methyl-pyrazol-3-yl]-N-(6-methoxypyrimidin-4-yl)pyrazolo[1,5-a]pyridin-2-amine]
23 nM	CCN1CC[C@H]1COc1cnn(C)c1-c1ccn2nc(Nc3cc(C)nc(C(F)(F)F)n3)cc2c1 [Example 168, 5-[4-[[(2S)-1-ethylazetidin-2-yl]methoxy]-2-methyl-pyrazol-3-yl]-N-[6-methyl-2-(trifluoromethyl)pyrimidin-4-yl]pyrazolo[1,5-a]pyridin-2-amine]
38.7 nM	CCc1cc(Nc2cc3cc(-c4c(OC[C@@H]5CCN5CC)cnn4C)ccn3n2)nc(C)n1 [Example 169, 5-[4-[[(2S)-1-ethylazetidin-2-yl]methoxy]-2-methyl-pyrazol-3-yl]-N-(6-ethyl-2-methyl-pyrimidin-4-yl)pyrazolo[1,5-a]pyridin-2-amine]
0.9 nM	CCN1CC[C@@H]1COc1cnn(C)c1-c1ccn2nc(Nc3ccc(=O)n(C)n3)cc2c1 [Example 170, 6-[[5-[4-[[(2R)-1-ethylazetidin-2-yl]methoxy]-2-methyl-pyrazol-3-yl]pyrazolo[1,5-a]pyridin-2-yl]amino]-2-methyl-pyridazin-3-one]
< 0.847 nM	CCN1CC[C@@H]1COc1cnn(C)c1-c1ccn2nc(Nc3cc(C)nc(C4CC4)n3)cc2c1 [Example 171, N-(2-cyclopropyl-6-methyl-pyrimidin-4-yl)-5-[4-[[(2R)-1-ethylazetidin-2-yl]methoxy]-2-methyl-pyrazol-3-yl]pyrazolo[1,5-a]pyridin-2-amine]
< 0.847 nM	CCc1cc(Nc2cc3cc(-c4c(OC[C@H]5CCN5CC)cnn4C)ccn3n2)nc(C)n1 [Example 172, 5-[4-[[(2R)-1-ethylazetidin-2-yl]methoxy]-2-methyl-pyrazol-3-yl]-N-(6-ethyl-2-methyl-pyrimidin-4-yl)pyrazolo[1,5-a]pyridin-2-amine]
< 0.847 nM	CCN1CC[C@@H]1COc1cnn(C)c1-c1ccn2nc(Nc3cc(C)nc(OC)n3)cc2c1 [Example 173, 5-[4-[[(2R)-1-ethylazetidin-2-yl]methoxy]-2-methyl-pyrazol-3-yl]-N-(2-methoxy-6-methyl-pyrimidin-4-yl)pyrazolo[1,5-a]pyridin-2-amine]
< 0.847 nM	CCN1CC[C@@H]1COc1cnn(C)c1-c1ccn2nc(Nc3ccc4nc(C)cn4n3)cc2c1 [Example 174, N-[5-[4-[[(2R)-1-ethylazetidin-2-yl]methoxy]-2-methyl-pyrazol-3-yl]pyrazolo[1,5-a]pyridin-2-yl]-2-methyl-imidazo[1,2-b]pyridazin-6-amine]
< 0.847 nM	CCN1CC[C@@H]1COc1cnn(C)c1-c1ccn2nc(Nc3ccc4nccn4n3)cc2c1 [Example 175, N-[5-[4-[[(2R)-1-ethylazetidin-2-yl]methoxy]-2-methyl-pyrazol-3-yl]pyrazolo[1,5-a]pyridin-2-yl]imidazo[1,2-b]pyridazin-6-amine]
72.7 nM	CCN1CC[C@@H]1COc1cnn(C)c1-c1ccn2nc(Nc3ncc(F)cn3)cc2c1 [Example 176, (R)-5-(4-((1-ethylazetidin-2-yl)methoxy)-1-methyl-1H-pyrazol-5-yl)-N-(5-fluoropyrimidin-2-yl)pyrazolo[1,5-a]pyridin-2-amine]
1.5 nM	CCN1CC[C@@H]1COc1cnn(C)c1-c1ccn2nc(Nc3cc(C)nc(C(C)(C)C)n3)cc2c1 [Example 177, N-(2-tert-butyl-6-methyl-pyrimidin-4-yl)-5-[4-[[(2R)-1-ethylazetidin-2-yl]methoxy]-2-methyl-pyrazol-3-yl]pyrazolo[1,5-a]pyridin-2-amine]
< 0.847 nM	CCN1CC[C@@H]1COc1cnn(C)c1-c1ccn2nc(Nc3cc(C)c(=O)n(C)n3)cc2c1 [Example 178, 6-[[5-[4-[[(2R)-1-ethylazetidin-2-yl]methoxy]-2-methyl-pyrazol-3-yl]pyrazolo[1,5-a]pyridin-2-yl]amino]-2,4-dimethyl-pyridazin-3-one]
< 0.847 nM	CCN1CC[C@@H]1COc1cnn(C)c1-c1ccn2nc(Nc3cc(C)nc(CC4CC4)n3)cc2c1 [Example 179, N-[2-(cyclopropylmethyl)-6-methyl-pyrimidin-4-yl]-5-[4-[[(2R)-1-ethylazetidin-2-yl]methoxy]-2-methyl-pyrazol-3-yl]pyrazolo[1,5-a]pyridin-2-amine]
2.1 nM	CCN1CC[C@@H]1COc1cnn(C)c1-c1ccn2nc(Nc3cnc(OC)cn3)cc2c1 [Example 180, 5-[4-[[(2R)-1-ethylazetidin-2-yl]methoxy]-2-methyl-pyrazol-3-yl]-N-(5-methoxypyrazin-2-yl)pyrazolo[1,5-a]pyridin-2-amine]
2.2 nM	CCN1CC[C@@H]1COc1cnn(C)c1-c1ccn2nc(Nc3cnc(OC(F)F)cn3)cc2c1 [Example 181, N-[5-(difluoromethoxy)pyrazin-2-yl]-5-[4-[[(2R)-1-ethylazetidin-2-yl]methoxy]-2-methyl-pyrazol-3-yl]pyrazolo[1,5-a]pyridin-2-amine]
34.4 nM	Cn1ncc(CO[C@@H]2CCNC2)c1-c1ccn2nc(NC(=O)C3CC3)cc2c1 [Example 182, N-[5-[2-methyl-4-[[(3R)-pyrrolidin-3-yl]oxymethyl]pyrazol-3-yl]pyrazolo[1,5-a]pyridin-2-yl]cyclopropanecarboxamide]
7.3 nM	Cn1ncc(COC2(C(F)(F)F)CNC2)c1-c1ccn2nc(NC(=O)C3CC3)cc2c1 [Example 186, N-[5-[2-methyl-4-[[3-(trifluoromethyl)azetidin-3-yl]oxymethyl]pyrazol-3-yl]pyrazolo[1,5-a]pyridin-2-yl]cyclopropanecarboxamide]
23.5 nM	C[C@@H]1NC[C@H]1OCc1cnn(C)c1-c1ccn2nc(NC(=O)C3CC3)cc2c1 [Example 187, N-[5-[2-methyl-4-[[(2S,3R)-2-methylazetidin-3-yl]oxymethyl]pyrazol-3-yl]pyrazolo[1,5-a]pyridin-2-yl]cyclopropanecarboxamide]

SMILES	IC50
Cn1ncc(CO[C@H]2C[C@H]3COC[C@@H](C2)N3)c1-c1ccn2nc(NC(=O)C3CC3)cc2c1 [Example 183, N-[5-[2-methyl-4-[[(1S,5R)-3-oxa-9-azabicyclo[3.3.1]nonan-7-yl]oxymethyl]pyrazol-3-yl]pyrazolo[1,5-a]pyridin-2-yl]cyclopropanecarboxamide]	11.7 nM
CN1[C@@H]2COC[C@H]1C[C@@H](OCc1cnn(C)c1-c1ccn3nc(NC(=O)C4CC4)cc3c1)C2 [Example 185, N-[5-[2-methyl-4-[[(1S,5R)-9-methyl-3-oxa-9-azabicyclo[3.3.1]nonan-7-yl]oxymethyl]pyrazol-3-yl]pyrazolo[1,5-a]pyridin-2-yl]cyclopropanecarboxamide]	18.3 nM
